Laboratory results: patent US20260092071A1, “COMPOUNDS AND COMPOSITIONS AS SMARCA2/4 DEGRADERS AND USES THEREOF” (REGENTS OF THE UNIVERSITY OF MICHIGAN, priority 2022, published 2026)

How the values were obtained:
[1] = target: SMARCA2 (Homo sapiens, UniProt P51531); assay: HiBit assay in engineered HT1080 CRISPR knock-in cell, 6 hrs (B series), SMARCA2; format: cell-based; conditions: 6 hrs incubation; for DC50: HT1080 CRISPR knock-in cells, read-out: SMARC A2 HT1080 HiBit DC50; for Dmax: HT-1080, HT1080 CRISPR knock-in cells, read-out: SMARC A2 HT1080 HiBit Dmax (%)
SMARCA2, sequence (P51531 whole entry): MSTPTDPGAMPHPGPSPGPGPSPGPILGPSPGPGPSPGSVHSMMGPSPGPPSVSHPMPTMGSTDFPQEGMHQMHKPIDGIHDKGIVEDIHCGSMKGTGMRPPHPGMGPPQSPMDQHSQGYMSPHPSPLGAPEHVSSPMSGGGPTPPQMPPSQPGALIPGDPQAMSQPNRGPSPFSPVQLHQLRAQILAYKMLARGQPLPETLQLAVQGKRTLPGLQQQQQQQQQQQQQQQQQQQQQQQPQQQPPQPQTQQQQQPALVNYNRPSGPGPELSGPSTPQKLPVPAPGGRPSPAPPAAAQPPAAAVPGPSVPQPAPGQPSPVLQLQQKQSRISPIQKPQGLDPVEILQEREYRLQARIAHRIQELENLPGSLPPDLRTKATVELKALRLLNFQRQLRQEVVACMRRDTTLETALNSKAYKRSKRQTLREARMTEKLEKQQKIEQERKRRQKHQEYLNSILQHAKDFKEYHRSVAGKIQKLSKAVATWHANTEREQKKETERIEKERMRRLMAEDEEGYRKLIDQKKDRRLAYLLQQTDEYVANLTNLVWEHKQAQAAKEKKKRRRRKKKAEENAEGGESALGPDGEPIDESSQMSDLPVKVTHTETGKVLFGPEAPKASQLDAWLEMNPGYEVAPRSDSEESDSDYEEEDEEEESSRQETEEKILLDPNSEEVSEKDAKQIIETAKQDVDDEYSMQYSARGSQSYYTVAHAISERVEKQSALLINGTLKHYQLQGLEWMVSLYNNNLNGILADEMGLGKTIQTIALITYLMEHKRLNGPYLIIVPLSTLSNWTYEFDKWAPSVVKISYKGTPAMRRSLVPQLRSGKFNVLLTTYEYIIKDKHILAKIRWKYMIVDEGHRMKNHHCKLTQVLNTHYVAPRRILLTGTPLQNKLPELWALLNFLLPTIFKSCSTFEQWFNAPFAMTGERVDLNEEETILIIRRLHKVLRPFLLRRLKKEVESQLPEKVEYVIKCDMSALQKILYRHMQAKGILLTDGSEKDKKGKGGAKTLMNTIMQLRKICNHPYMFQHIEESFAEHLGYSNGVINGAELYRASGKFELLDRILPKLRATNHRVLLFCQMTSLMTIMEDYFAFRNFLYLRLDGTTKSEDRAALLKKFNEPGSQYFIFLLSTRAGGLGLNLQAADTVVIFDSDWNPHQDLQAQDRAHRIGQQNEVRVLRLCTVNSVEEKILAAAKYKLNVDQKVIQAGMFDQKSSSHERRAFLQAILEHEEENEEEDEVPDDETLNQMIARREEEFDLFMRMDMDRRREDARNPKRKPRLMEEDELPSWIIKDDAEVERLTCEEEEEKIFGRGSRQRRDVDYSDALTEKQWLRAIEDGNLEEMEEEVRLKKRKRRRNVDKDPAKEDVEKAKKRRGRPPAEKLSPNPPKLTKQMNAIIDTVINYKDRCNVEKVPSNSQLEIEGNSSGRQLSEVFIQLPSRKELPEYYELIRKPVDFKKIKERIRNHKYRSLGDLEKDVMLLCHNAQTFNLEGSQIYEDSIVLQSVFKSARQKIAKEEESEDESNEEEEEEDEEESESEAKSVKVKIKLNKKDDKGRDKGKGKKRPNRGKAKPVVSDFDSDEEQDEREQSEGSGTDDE
Summary of the method: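 Protein abundance is measured in HiBiT-tagged HT1080 CRISPR knock-in cells after a 6 hr compound treatment (0.1% DMSO) by lytic Nano-Glo HiBiT luminescence.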

[2] = target: SMARCA4 (Homo sapiens, UniProt P51532); assay: HiBit assay in engineered HT1080 CRISPR knock-in cell, 6 hrs (B series), SMARCA4; format: cell-based; conditions: 6 hrs incubation; for DC50: HT1080 CRISPR knock-in cells, read-out: SMARC A4 HT1080 HiBit DC50; for Dmax: HT-1080, HT1080 CRISPR knock-in cells, read-out: SMARC A4 HT1080 HiBit Dmax(%)
SMARCA4, sequence (P51532 whole entry): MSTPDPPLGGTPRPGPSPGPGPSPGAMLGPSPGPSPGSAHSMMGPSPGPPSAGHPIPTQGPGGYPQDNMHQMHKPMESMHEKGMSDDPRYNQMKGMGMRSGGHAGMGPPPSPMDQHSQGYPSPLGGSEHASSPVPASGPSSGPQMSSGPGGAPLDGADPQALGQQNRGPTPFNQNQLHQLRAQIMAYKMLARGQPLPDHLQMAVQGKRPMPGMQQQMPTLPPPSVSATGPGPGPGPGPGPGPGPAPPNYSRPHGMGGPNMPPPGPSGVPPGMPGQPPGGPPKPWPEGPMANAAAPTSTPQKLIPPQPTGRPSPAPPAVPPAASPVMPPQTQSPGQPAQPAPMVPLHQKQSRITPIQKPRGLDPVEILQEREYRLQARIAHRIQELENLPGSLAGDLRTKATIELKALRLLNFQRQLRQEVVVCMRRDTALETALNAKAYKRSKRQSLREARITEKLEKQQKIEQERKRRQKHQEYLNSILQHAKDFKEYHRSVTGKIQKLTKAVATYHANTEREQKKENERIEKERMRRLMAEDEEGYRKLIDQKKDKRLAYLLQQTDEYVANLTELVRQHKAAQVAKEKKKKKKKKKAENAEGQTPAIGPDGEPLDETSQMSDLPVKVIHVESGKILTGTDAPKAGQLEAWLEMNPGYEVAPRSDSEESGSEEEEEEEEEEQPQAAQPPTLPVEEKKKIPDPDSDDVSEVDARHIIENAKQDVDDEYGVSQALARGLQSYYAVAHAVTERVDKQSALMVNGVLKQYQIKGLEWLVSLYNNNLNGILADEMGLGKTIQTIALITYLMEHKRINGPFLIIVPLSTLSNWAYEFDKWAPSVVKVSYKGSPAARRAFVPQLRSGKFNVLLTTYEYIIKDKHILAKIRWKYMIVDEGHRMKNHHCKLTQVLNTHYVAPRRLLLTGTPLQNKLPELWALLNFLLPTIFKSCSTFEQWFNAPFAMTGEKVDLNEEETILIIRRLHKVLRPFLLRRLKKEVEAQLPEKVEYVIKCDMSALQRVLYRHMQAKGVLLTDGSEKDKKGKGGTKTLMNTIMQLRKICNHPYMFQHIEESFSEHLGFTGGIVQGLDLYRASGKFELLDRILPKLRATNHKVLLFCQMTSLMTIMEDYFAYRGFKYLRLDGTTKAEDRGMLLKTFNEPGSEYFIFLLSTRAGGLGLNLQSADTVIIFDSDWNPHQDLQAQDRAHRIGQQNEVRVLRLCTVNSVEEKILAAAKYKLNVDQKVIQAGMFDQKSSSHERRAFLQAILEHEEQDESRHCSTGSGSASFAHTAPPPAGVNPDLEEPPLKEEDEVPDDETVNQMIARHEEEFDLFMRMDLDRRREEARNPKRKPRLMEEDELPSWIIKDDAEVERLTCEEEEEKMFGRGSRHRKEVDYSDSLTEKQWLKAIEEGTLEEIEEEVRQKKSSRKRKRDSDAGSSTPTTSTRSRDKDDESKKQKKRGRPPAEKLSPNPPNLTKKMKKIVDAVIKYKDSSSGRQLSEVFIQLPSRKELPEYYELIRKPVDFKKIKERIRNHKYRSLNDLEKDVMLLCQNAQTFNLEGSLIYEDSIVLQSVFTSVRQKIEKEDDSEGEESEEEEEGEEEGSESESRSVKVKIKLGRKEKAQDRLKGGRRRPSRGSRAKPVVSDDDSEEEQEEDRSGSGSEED
Summary of the method: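 HT1080 CRISPR knock-in cells carrying the HiBiT tag were seeded onto compounds (final DMSO 0.1%) and incubated 6 hrs at 37° C, 5% CO2. Remaining tagged protein was detected by lytic HiBiT luminescence after adding LgBiT protein and substrate, with LgBiT-free wells serving as negative control.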

Structure (SMILES) | DC50 [1] [nM] | Dmax [1] [%] | DC50 [2] [nM] | Dmax [2] [%]
Cc1ncsc1-c1ccc([C@H](C)NC(=O)[C@@H]2C[C@@H](O)CN2C(=O)[C@H](C(C)C)n2cc([C@H]3CC[C@H](CN4CCC(c5cccc6c5C(C)(C)c5nc(=O)c7c(Cl)cccc7n5-6)CC4)CC3)nn2)cc1 [Compound B107, (2S,4R)-1-((S)-2-(4-((1r,4S)-4-((4-(4-chloro-7,7-dimethyl-5-oxo-5,7-dihydroindolo[1,2-a]quinazolin-8-yl)piperidin-1-yl)methyl)cyclohexyl)-1H-1,2,3-triazol-1-yl)-3-methylbutanoyl)-4-hydroxy-N-((S)-1-(4-(4-methylthiazol-5-yl)phenyl)ethyl)pyrrolidine-2-carboxamide] | < 100 | > 90 | < 100 | > 90
C[C@H](NC(=O)[C@@H]1C[C@@H](O)CN1C(=O)[C@@H](n1cc(C2CCC(CN3CCC(c4ccc5c(c4)-n4c(nc(=O)c6c(Cl)cccc64)C54CCCCC4)CC3)CC2)nn1)C(C)(C)C)c1ccc(-c2scnc2CCCN2CCOCC2)cc1 (stereo partly drawn) [Compound B108, (2S,4R)-1-((S)-2-(4-((11,4S)-4-((4-(4′-chloro-5′-oxo-5′H-spiro[cyclohexane-1,7′-indolo[1,2-a]quinazolin]-10′-yl)piperidin-1-yl)methyl)cyclohexyl)-1H-1,2,3-triazol-1-yl)-3,3-dimethylbutanoyl)-4-hydroxy-N-((S)-1-(4-(4-(3-morpholinopropyl)thiazol-5-yl)phenyl)ethyl)pyrrolidine-2-carboxamide] | 100 to 500 | > 90 | 100 to 500 | 50 to 69
Cc1ncsc1-c1ccc([C@H](CN2CCOCC2)NC(=O)[C@@H]2C[C@@H](O)CN2C(=O)[C@H](c2cc(N3CCC(c4ccc5c(c4)C(C)(C)c4nc(=O)c6c(Cl)cccc6n4-5)CC3)no2)C(C)C)cc1 [Compound B109, (2S,4R)-1-(2-(3-(4-(4-chloro-7,7-dimethyl-5-oxo-5,7-dihydroindolo[1,2-a]quinazolin-9-yl)piperidin-1-yl)isoxazol-5-yl)-3-methylbutanoyl)-4-hydroxy-N—((R)-1-(4-(4-methylthiazol-5-yl)phenyl)-2-morpholinoethyl)pyrrolidine-2-carboxamide] | < 100 | > 90 | 100 to 500 | 50 to 69
Cc1ncsc1-c1ccc([C@H](CN2CCOCC2)NC(=O)[C@@H]2C[C@@H](O)CN2C(=O)[C@@H](c2cc(N3CCC(c4ccc5c(c4)C(C)(C)c4nc(=O)c6c(Cl)cccc6n4-5)CC3)no2)C(C)C)cc1 [Compound B110, (2S,4R)-1-(2-(3-(4-(4-chloro-7,7-dimethyl-5-oxo-5,7-dihydroindolo[1,2-a]quinazolin-9-yl)piperidin-1-yl)isoxazol-5-yl)-3-methylbutanoyl)-4-hydroxy-N—((R)-1-(4-(4-methylthiazol-5-yl)phenyl)-2-morpholinoethyl)pyrrolidine-2-carboxamide] | < 100 | > 90 | < 100 | 70 to 90
Cc1ncsc1-c1ccc([C@H](C)NC(=O)[C@@H]2C[C@@H](O)CN2C(=O)[C@@H](c2cc(N3CCC(CN4CCN(c5ccc6c(c5)-n5c(nc(=O)c7c(Cl)cccc75)C6(C)C)CC4)CC3)no2)C(C)C)cc1 [Compound B111, (2S,4R)-1-((R)-2-(3-(4-((4-(4-chloro-7,7-dimethyl-5-oxo-5,7-dihydroindolo[1,2-a]quinazolin-10-yl)piperazin-1-yl)methyl)piperidin-1-yl)isoxazol-5-yl)-3-methylbutanoyl)-4-hydroxy-N-((S)-1-(4-(4-methylthiazol-5-yl)phenyl)ethyl)pyrrolidine-2-carboxamide] | < 100 | > 90 | < 100 | 50 to 69
Cc1ncsc1-c1ccc(C2(NC(=O)[C@@H]3C[C@@H](O)CN3C(=O)[C@@H](n3cc([C@H]4CC[C@H](CN5CCC(c6ccc7c(c6)-n6c(nc(=O)c8c(Cl)cccc86)C7(C)C)CC5)CC4)nn3)C(C)(C)C)CNC2)cc1 [Compound B113, (2S,4R)-1-((S)-2-(4-((1r,4S)-4-((4-(4-chloro-7,7-dimethyl-5-oxo-5,7-dihydroindolo[1,2-a]quinazolin-10-yl)piperidin-1-yl)methyl)cyclohexyl)-1H-1,2,3-triazol-1-yl)-3,3-dimethylbutanoyl)-4-hydroxy-N-(3-(4-(4-methylthiazol-5-yl)phenyl)azetidin-3-yl)pyrrolidine-2-carboxamide] | 100 to 500 | > 90 | 501 to 1000 | < 50
Cc1ncsc1-c1ccc([C@H](C)NC(=O)[C@@H]2C[C@@H](O)CN2C(=O)[C@H](C(C)C)n2cc(C3CCC(N4CCC(c5cccc6c5C(C)(C)c5nc(=O)c7c(Cl)cccc7n5-6)CC4)CC3)nn2)cc1 (stereo partly drawn) [Compound B114, (2S,4R)-1-((S)-2-(4-(4-(4-(4-chloro-7,7-dimethyl-5-oxo-5,7-dihydroindolo[1,2-a]quinazolin-8-yl)piperidin-1-yl)cyclohexyl)-1H-1,2,3-triazol-1-yl)-3-methylbutanoyl)-4-hydroxy-N-((S)-1-(4-(4-methylthiazol-5-yl)phenyl)ethyl)pyrrolidine-2-carboxamide] | < 100 | 70 to 90 | 100 to 500 | < 50
Cc1ncsc1-c1ccc([C@H](CN2CCOCC2)NC(=O)[C@@H]2C[C@@H](O)CN2C(=O)C(c2cc(N3CCC(CN4CCC(c5ccc6c(c5)-n5c(nc(=O)c7c(Cl)cccc75)C6(C)C)CC4)CC3)no2)C(C)C)cc1 (stereo partly drawn) [Compound B115, (2S,4R)-1-(2-(3-(4-((4-(4-chloro-7,7-dimethyl-5-oxo-5,7-dihydroindolo[1,2-a]quinazolin-10-yl)piperidin-1-yl)methyl)piperidin-1-yl)isoxazol-5-yl)-3-methylbutanoyl)-4-hydroxy-N-((R)-1-(4-(4-methylthiazol-5-yl)phenyl)-2-morpholinoethyl)pyrrolidine-2-carboxamide] | < 100 | > 90 | < 100 | 70 to 90
Cc1ncsc1-c1ccc([C@H](C)NC(=O)[C@@H]2C[C@@H](O)CN2C(=O)[C@@H](c2cc(OCCc3cccc4c3C(C)(C)c3nc(=O)c5c(Cl)cccc5n3-4)no2)C(C)C)cc1 [Compound B116, (2S,4R)-1-((R)-2-(3-(2-(4-chloro-7,7-dimethyl-5-oxo-5,7-dihydroindolo[1,2-a]quinazolin-8-yl)ethoxy)isoxazol-5-yl)-3-methylbutanoyl)-4-hydroxy-N—((S)-1-(4-(4-methylthiazol-5-yl)phenyl)ethyl)pyrrolidine-2-carboxamide] | < 100 | 70 to 90 | > 1000 | < 50
C[C@H](NC(=O)[C@@H]1C[C@@H](O)CN1C(=O)[C@@H](n1cc([C@H]2CC[C@H](CN3CCC(c4ccc5c(c4)-n4c(nc(=O)c6c(Cl)cccc64)C5(C)C)CC3)CC2)nn1)C(C)(C)C)c1ccc(-c2scnc2Cl)cc1 [Compound B117, (2S,4R)-1-((S)-2-(4-((1r,4S)-4-((4-(4-chloro-7,7-dimethyl-5-oxo-5,7-dihydroindolo[1,2-a]quinazolin-10-yl)piperidin-1-yl)methyl)cyclohexyl)-1H-1,2,3-triazol-1-yl)-3,3-dimethylbutanoyl)-N-((S)-1-(4-(4-chlorothiazol-5-yl)phenyl)ethyl)-4-hydroxypyrrolidine-2-carboxamide] | < 100 | > 90 | 100 to 500 | 50 to 69
Cc1ncsc1-c1ccc([C@H](CN2CCOCC2)NC(=O)[C@@H]2C[C@@H](O)CN2C(=O)[C@@H](n2cc([C@H]3CC[C@H](S(=O)(=O)N4CCC(c5ccc6c(c5)-n5c(nc(=O)c7c(Cl)cccc75)C65CCCCC5)CC4)CC3)nn2)C(C)(C)C)cc1 [Compound B118, (2S,4R)-1-((S)-2-(4-((1r,4S)-4-((4-(4′-chloro-5′-oxo-5′H-spiro[cyclohexane-1,7′-indolo[1,2-a]quinazolin]-10′-yl)piperidin-1-yl)sulfonyl)cyclohexyl)-1H-1,2,3-triazol-1-yl)-3,3-dimethylbutanoyl)-4-hydroxy-N-((R)-1-(4-(4-methylthiazol-5-yl)phenyl)-2-morpholinoethyl)pyrrolidine-2-carboxamide] | < 100 | 70 to 90 | 501 to 1000 | 50 to 69
Cc1ncsc1-c1ccc([C@H](C)NC(=O)[C@@H]2C[C@@H](O)CN2C(=O)[C@@H](n2cc(-c3cccc(CN4CCC(c5ccc6c(c5)-n5c(nc(=O)c7c(Cl)cccc75)C6(C)C)CC4)c3)nn2)C(C)(C)C)cc1 [Compound B119, (2S,4R)-1-((S)-2-(4-(3-((4-(4-chloro-7,7-dimethyl-5-oxo-5,7-dihydroindolo[1,2-a]quinazolin-10-yl)piperidin-1-yl)methyl)phenyl)-1H-1,2,3-triazol-1-yl)-3,3-dimethylbutanoyl)-4-hydroxy-N-((S)-1-(4-(4-methylthiazol-5-yl)phenyl)ethyl)pyrrolidine-2-carboxamide] | < 100 | > 90 | < 100 | > 90
